Laboratory results taken from US20090209568A1, “Spiro [Benzopyran] or Spiro [Benzofuran] Derivatives Which Inhibit the Sigma Receptor” (priority 2006, published 2009).

Legend:
σ1-receptor = molecular target: T1, σ1-receptor (Cavia porcellus, UniProt Q60492); experiment: Sigma-1 receptor radioligand binding, [3H](+)pentazocine (Version A / Version B); design: species or system guinea pig; settings: guinea pig brain membranes; for inhibition at 0.1 µM: compound 10^−7 M; for inhibition at 0.01 µM: compound 10^−8 M
T1 construct: guinea pig brains were homogenized in 10 vols; (w/v) of Tris-HCl 50 mM 0.32 M sucrose; from tissue; host or cells: guinea pig brain membranes
T1 sequence (Q60492 whole entry): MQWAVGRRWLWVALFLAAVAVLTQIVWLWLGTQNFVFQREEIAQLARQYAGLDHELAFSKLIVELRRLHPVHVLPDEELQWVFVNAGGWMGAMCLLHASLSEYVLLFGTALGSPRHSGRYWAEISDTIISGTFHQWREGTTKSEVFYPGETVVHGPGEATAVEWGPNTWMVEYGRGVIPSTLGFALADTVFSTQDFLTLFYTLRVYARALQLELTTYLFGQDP
Experimental: Brain membrane preparation and binding assays for the σ1-receptor were performed as described (DeHaven-Hudkins et al., 1992) with some modifications. In brief, guinea pig brains were homogenized in 10 vols. (w/v) of Tris-HCl 50 mM 0.32 M sucrose, pH 7.4, with a Kinematica Polytron PT 3000 at 15000 r.p.m. for 30 s. The homogenate was centrifuged at 1000 g for 10 min at 4° C. and the supernatants collected and centrifuged again at 48000 g for 15 min at 4° C. The pellet was resuspended in 10 volumes of Tris-HCl buffer (50 mM, pH 7.4), incubated at 37° C. for 30 min, and centrifuged at 48000 g for 20 min at 4° C. Following this, the pellet was resuspended in fresh Tris-HCl buffer (50 mM, pH 7.4) and stored on ice until use.
Each assay tube contained 10 μL of [^3H](+)pentazocine (final concentration of 0.5 nM), 900 μL of the tissue suspension to a final assay volume of 1 mL and a final tissue concentration of approximately 30 mg tissue net weight/mL. Non-specific binding was defined by addition of a final concentration of 1 μM haloperidol. All tubes were incubated at 37° C. for 150 min before termination of the reaction by rapid filtration over Schleicher & Schuell GF 3362 glass fibre filters [previously soaked in a solution of 0.5% polyethylenimine for at least 1 h]. Filters were then washed with four times with 4 mL of cold Tris-HCl buffer (50 mM, pH 7.4). Following addition of scintillation cocktail, the samples were allowed to equilibrate overnight. The amount of bound radioactivity was determined by liquid scintillation spectrometry using a Wallac Winspectral 1414 liquid scintillation counter. Protein concentrations were determined by the method of Lowry et al. (1951).
In brief the σ1-receptor preparation was prepared from guinea pig brain. The brains were homogenized in 5 to 6 times of volume sucrose solution (0.32M) and homogenized. The homogenate was centrifuged at 2900 rpm, 4° C., 10 min). the supernatant was centrifuged again (23500×g, 4° C., 20 min). The pellet was resuspended in Tris-buffer, incubated for 30 min at room temperature and centrifuged f (23500×g, 4° C., 20 min). The pellet was resuspended in cold TRIS-buffer and homogenized. Then the protein content was measured (approx. 1.5 mg/mL) and the homogenate frozen at −80° C. for later use.
The radioligand used was [^3H]-(+)-Pentazocin in TRIS-buffer. In a volume of 200 μL 50 μL TRIS-buffer, 50 μL compound solution of varying concentration, 50 μL radioligand-solution (8 nM; resulting in 2 nM in the assay) and finally 50 μL of receptor preparation (approx. 1.5 mg/mL) were given into a well of a microplate equipped with a filter. The plate was closed and stirred for 2.5 h at 37° C. and 500 rpm. Following that the solvents were removed by a harvester through the filter. After rinsing with H2O the filter was measured in a scintillation counter ([^3H]-protocol).

[1] = test system: capsaicin-induced mechanical allodynia; experiment: Effect on capsaicin in development of mechanical allodynia (von Frey filaments); format: in vivo; settings: 16 mg/kg i.p., mice, 1 μg capsaicin into paw, von Frey mechanical stimulus
Experimental: This model uses the von-Frey Filaments and is a model to test the effects or symptoms of neuropathic pain, allodynia etc. […] The test protocol for all tests with von Frey filaments: After habituation mice were first treated with the test-compound (or solvent in controls). Then 1 μg capsaicin (1% DMSO) is injected into their paw resulting in developing pain in the effected paw. The effected paw is then treated with a mechanical stimulus and the latency time before the paw is withdrawn is measured.

SMILES	inhibition at 0.1 µM (σ1-receptor) [%]	inhibition at 0.01 µM (σ1-receptor) [%]	% of pain relief [1] [%]
CCCCN1CCC2(C1)OC(OC)Cc1ccccc12 (mixture of isomers) [Example 22, cis/trans-1′-Butyl-3-methoxy-3,4-dihydrospiro[[2]benzopyran-1,3′-pyrrolidin]]	52	29	45.67±9.62
COC1OC2(CCN(Cc3ccccc3)C2)c2ccccc21 (mixture of isomers) [Example 25, cis/trans-1′-Benzyl-3-methoxy-3H-spiro[[2]benzofuran-1,3′-pyrrolidin]]	88	22.2	44.28±9.49
